# Data published in paper PMC2642990, “The Glycogen-Binding Domain on the AMPK β Subunit Allows the Kinase to Act as a Glycogen Sensor” (Cell Metabolism, 2009).
# pIC50: −log10 of the molar value.
# Target: native rat liver AMPK (Rattus norvegicus, UniProt P80386)
# Test: AMPK kinase assay (SAMS peptide), native rat liver AMPK in solution
# Format: biochemical
# Details: oligosaccharides; read-out: IC50 / half-maximal effect, inhibition of AMPK
# Experimental: We next tested the effect of glycogen on the activity of the native AMPK complex purified from rat liver ([Hawley et al., 1996]). […] The bovine liver glycogen inhibited AMPK completely with an IC50 (concentration causing half-maximal inhibition) of 30 ± 9 mM glucose equivalents (Figure 2A).
# Figure 2 Allosteric Inhibition of AMPK by Different Glycogen Preparations (A) Concentration dependence of inhibition of native rat liver AMPK by preparations of bovine and rat liver glycogen; glycogen concentrations expressed as glucose produced after total hydrolysis. Data were fitted to an IC50 equation (see Supplemental Experimental Procedures), and curves were generated using the estimated best-fit parameters. (B) Concentration dependence of inhibition of native rat liver AMPK by bovine liver glycogen in the presence and absence of 200 μM AMP; curves were generated as in (A). (C) Inhibition by bovine liver glycogen of recombinant AMPK complex (myc-α1:β1:γ1) containing full-length (1–270) or truncated β1 subunit lacking the GBD (172–270). Complexes were expressed in CCL13 cells and purified by immunoprecipitation prior to assay with or without glycogen (200 mM glucose equivalents). Data are means ± SEM (n = 3). ^∗Activity different from control without glycogen by t test (p < 0.05). (D) Inhibition by bovine liver glycogen (200 mM glucose equivalents) of purified, native rat liver AMPK (a mixture of α1β1γ1 and α2β1γ1 complexes) that had been recovered by immunoprecipitation (IP) using anti-α1, anti-α2, or a mixture of anti-α1/-α2 antibodies or assayed in solution without immunoprecipitation. Results are expressed as percentages of the activity in controls without glycogen, and data are mean ± SEM (n = 3). (E) Absorption spectra of bovine and rat liver glycogen preparations in complex with iodine. […]
# Purification of Native Rat Liver, AMPK, Recombinant AMPK, and AMPK Assays AMPK was purified from rat liver as far as the gel filtration step (Hawley et al., 1996). The kinase was assayed using the SAMS peptide (Davies et al., 1989). IC50 values for inhibition were estimated by fitting data using GraphPad Prism to the equation: Activity = Residual + Maximum - (Maximum × [Inhibitor]/(IC50+[Inhibitor])) where Residual is the activity in the presence of maximal inhibition, Maximum is the maximal inhibition and [inhibitor] is the concentration of the inhibitory molecule. For recombinant AMPK, constructs encoding myc-tagged α1, β1 and γ1 subunits of AMPK were co-transfected into CCL13 cells using modifications of previous methods (Woods et al., 1996). DNA (10 µg) was dissolved in sterile water (450 µl) to which 50 μl of 2.5 M CaCl2 was added, and the solution vortexed for 1 min. […]
# Sequence of native rat liver AMPK (P80386 2-270): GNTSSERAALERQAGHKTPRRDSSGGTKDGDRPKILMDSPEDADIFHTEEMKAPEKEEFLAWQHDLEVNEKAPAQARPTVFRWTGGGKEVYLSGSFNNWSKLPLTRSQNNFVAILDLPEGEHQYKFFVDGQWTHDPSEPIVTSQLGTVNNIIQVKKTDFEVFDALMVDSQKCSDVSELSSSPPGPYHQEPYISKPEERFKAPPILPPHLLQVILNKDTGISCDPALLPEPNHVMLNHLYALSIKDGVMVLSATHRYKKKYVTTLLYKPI
# Sequence of native rat liver AMPK (P54645 whole entry partner): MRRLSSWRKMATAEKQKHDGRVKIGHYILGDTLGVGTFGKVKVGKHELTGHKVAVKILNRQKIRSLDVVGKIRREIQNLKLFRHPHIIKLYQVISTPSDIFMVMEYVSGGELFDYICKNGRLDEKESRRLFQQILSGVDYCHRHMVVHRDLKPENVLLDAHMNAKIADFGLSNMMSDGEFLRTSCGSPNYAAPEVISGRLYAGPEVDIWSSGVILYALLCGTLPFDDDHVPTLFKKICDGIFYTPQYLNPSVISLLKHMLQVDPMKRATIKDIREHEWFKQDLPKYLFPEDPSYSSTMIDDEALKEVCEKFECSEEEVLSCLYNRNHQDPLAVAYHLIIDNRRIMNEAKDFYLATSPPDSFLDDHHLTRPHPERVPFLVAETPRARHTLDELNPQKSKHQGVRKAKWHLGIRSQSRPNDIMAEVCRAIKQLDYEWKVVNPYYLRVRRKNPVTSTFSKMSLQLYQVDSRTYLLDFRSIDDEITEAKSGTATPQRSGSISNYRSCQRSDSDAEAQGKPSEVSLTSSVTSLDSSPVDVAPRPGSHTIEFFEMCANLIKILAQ
# Sequence of native rat liver AMPK (Q09137 whole entry partner): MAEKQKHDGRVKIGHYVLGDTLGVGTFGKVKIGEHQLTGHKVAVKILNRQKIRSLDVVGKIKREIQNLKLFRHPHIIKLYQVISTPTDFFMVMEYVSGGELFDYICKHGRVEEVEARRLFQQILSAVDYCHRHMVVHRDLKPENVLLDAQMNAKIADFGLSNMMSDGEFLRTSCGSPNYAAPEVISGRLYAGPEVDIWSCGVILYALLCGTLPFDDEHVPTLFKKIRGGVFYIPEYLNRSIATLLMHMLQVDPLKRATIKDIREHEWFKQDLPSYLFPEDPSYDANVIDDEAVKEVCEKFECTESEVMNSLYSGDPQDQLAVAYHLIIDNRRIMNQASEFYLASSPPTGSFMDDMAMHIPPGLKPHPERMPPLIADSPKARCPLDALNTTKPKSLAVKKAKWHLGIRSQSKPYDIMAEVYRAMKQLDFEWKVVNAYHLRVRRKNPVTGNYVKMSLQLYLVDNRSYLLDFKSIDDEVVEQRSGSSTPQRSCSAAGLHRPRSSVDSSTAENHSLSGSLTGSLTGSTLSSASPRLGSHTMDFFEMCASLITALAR
# Sequence of native rat liver AMPK (P80385 whole entry partner): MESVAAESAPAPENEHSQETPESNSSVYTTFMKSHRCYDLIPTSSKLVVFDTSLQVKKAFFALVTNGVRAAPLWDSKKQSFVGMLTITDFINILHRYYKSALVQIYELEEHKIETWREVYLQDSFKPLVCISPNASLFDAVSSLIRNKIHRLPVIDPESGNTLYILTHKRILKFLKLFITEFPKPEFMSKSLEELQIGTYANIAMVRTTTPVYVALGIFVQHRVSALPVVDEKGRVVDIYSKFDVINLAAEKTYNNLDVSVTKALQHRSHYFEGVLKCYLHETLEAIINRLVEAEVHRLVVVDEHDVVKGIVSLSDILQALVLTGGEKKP
smiles,measurement,value
OC[C@H]1O[C@H](OC[C@H]2OC(O)[C@H](O)[C@@H](O)[C@@H]2O)[C@H](O)[C@@H](O)[C@@H]1O (stereo partly shown) [isomaltose],pIC50,1.80
